# According to paper PMC7845643, “Predictive Rules of Efflux Inhibition and Avoidance in Pseudomonas aeruginosa” (mBio, 2021):
# Legend:
# [1] = tested on: T1, Pseudomonas aeruginosa PAO1-Pore; experiment: microbe, parasite or virus in culture; parameters: 2-fold serial broth dilution MIC (at least 90% growth inhibition); details: PAO1, read-out: MICs (mg/L) in strains: / PAO1-Pore
# T1 construct: PAO1-Pore (hyperporinated, attTn7::mini-Tn7T-Gmr-lacIq-pLAC-fhuADCΔ4L)
# Description: (§1) Antibacterial activities were tested using a 2-fold serial dilution broth assay as described previously ([13]). The antibacterial activities are expressed as MIC (defined as at least 90% of growth inhibition) and IC50. To follow the fate of compounds in cells and to identify descriptors associated with different permeation barriers, we first separated the contributions of the OM barrier and active efflux in measured activities of compounds. For this purpose, the bacterial growth-inhibitory activities for all Rempex compounds were analyzed in four P. aeruginosa strains: the wild-type strain, PAO1; the PΔ6 strain, lacking six efflux pumps (ΔmexAB-oprM, ΔmexCD-oprJ, ΔmexXY, ΔmexJKL, ΔmexEF-oprN, and ΔtriABC); and their hyperporinated derivatives, PAO1-Pore and PΔ6-Pore, respectively ([39]). These strains were previously shown to differ dramatically in their susceptibilities to various classes of antibiotics because of differences in efflux proficiency and permeation across the OM ([13], [15]). To normalize to the differences in target inhibition potency among compounds, our key measured parameters were efflux ratios and OM barrier ratios, defined as the 50% inhibitory concentration for the parent/mutant (IC50 parent/IC50 mutant), for efflux mutants and hyperporinated mutants, respectively (see Table S1 in the supplemental material). More specifically, the IC50 ratios for PAO1/PAO1-Pore and PΔ6/PΔ6-Pore define the contribution of the OM barrier to the activities of compounds in the presence and absence of efflux, respectively. […] Activities of only a few compounds were slightly affected by the OM. Among them are compounds 58 and 46 (Fig. 1A), whose activity is enhanced by hyperporination of efflux-deficient PΔ6-Pore cells by 16- and 8-fold, respectively.
# [2] = tested on: T2, Pseudomonas aeruginosa PAO1; experiment: microbe, parasite or virus in culture; parameters: 2-fold serial broth dilution MIC (at least 90% growth inhibition); details: PAO1, read-out: MICs (mg/L) in strains: / PAO1
# T2 construct: PAO1 (attTn7::mini-Tn7T-Gm-lacIq-pLAC-MCS)
# Description: as §1
# [3] = tested on: T3, Pseudomonas aeruginosa PΔ6-Pore; experiment: microbe, parasite or virus in culture; parameters: 2-fold serial broth dilution MIC (at least 90% growth inhibition); details: read-out: MICs (mg/L) in strains: / D6-Pore
# T3 construct: PΔ6-Pore (six efflux pumps deleted, hyperporinated with fhuADCΔ4L)
# Description: as §1
# [4] = tested on: T4, Pseudomonas aeruginosa PΔ6; experiment: microbe, parasite or virus in culture; parameters: 2-fold serial broth dilution MIC (at least 90% growth inhibition); details: read-out: MICs (mg/L) in strains: / D6
# T4 construct: PΔ6 (PAO1 ΔmexAB-oprM ΔmexCD-oprJ ΔmexXY ΔmexJKL ΔmexEF-oprN ΔtriABC, efflux-deficient)
# Description: as §1
# MexB = target: T5, MexB (Pseudomonas aeruginosa, UniProt P52002); experiment: SPR (Biacore T200, CM5 chip, immobilized MexB, kinetic fit); assay type: binding
# T5 construct: purified MexB immobilized by amine coupling
# T5 sequence (P52002 whole entry): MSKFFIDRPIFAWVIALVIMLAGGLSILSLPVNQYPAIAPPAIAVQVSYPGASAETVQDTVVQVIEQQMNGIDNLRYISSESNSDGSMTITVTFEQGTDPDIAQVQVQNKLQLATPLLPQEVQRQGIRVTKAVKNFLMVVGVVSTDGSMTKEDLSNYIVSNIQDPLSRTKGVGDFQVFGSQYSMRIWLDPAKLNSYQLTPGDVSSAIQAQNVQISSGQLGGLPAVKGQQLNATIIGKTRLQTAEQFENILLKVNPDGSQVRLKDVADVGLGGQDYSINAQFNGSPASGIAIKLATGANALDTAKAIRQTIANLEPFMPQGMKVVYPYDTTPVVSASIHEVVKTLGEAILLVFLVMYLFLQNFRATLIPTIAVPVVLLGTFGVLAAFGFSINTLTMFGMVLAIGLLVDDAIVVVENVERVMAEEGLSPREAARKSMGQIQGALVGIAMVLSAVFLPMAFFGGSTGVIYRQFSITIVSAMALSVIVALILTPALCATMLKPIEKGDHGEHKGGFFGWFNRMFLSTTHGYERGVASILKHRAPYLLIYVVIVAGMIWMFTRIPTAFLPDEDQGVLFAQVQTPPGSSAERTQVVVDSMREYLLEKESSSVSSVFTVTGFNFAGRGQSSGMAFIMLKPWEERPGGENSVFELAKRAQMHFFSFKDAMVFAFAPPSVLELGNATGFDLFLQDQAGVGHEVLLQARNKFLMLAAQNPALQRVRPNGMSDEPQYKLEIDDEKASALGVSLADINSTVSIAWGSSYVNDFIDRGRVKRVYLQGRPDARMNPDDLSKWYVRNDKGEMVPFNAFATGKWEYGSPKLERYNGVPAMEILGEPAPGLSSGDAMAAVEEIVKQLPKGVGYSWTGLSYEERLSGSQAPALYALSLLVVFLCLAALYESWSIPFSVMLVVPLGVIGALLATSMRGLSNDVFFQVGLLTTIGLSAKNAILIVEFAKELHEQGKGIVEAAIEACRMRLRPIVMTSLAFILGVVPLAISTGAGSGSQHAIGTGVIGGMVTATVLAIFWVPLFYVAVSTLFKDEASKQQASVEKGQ
Compound,MIC [1],MIC [2],MIC [3],MIC [4],Kd (MexB)
"CO[C@@]1(NC(=O)C(C(=O)O)c2ccc(O)cc2)C(=O)N2C(C(=O)O)=C(CSc3nnnn3C)CO[C@@H]21 (stereo partly drawn) [OU-672, moxalactam]",15.6 mg/L,62.5 mg/L,0.97 mg/L,62.5 mg/L,
"CCN1CCN(C(=O)N[C@@H](C(=O)N[C@@H]2C(=O)N3C(C(=O)O)=C(CSc4nnnn4C)CS[C@H]23)c2ccc(O)cc2)C(=O)C1=O [OU-634, cefoperazone]",0.97 mg/L,3.9 mg/L,0.97 mg/L,,
"CO[C@@]1(NC(=O)C2SC(=C(C(N)=O)C(=O)O)S2)C(=O)N2C(C(=O)O)=C(CSc3nnnn3C)CS[C@@H]21 (stereo partly drawn) [OU-654, cefotetan]",200 mg/L,> 400 mg/L,12.5 mg/L,100 mg/L,
C[N+](CCN)(CCN)CCC[C@H](N)C(=O)N[C@H](CCc1ccc(C(F)(F)F)cc1)C(=O)Nc1cnc2ccccc2c1 [compound 17],,,,,24.2 µM
"Nc1nc(/C(=C/CC(=O)O)C(=O)N[C@@H]2C(=O)N3C(C(=O)O)=CCS[C@H]23)cs1 [OU-668, ceftibuten]",2000 mg/L,> 2000 mg/L,128 mg/L,1000 mg/L,
"O=C(O)C1=C(CSc2nnnn2CS(=O)(=O)O)CS[C@@H]2[C@H](NC(=O)[C@H](O)c3ccccc3)C(=O)N12 [OU-666, cefonicid]",3.9 mg/L,62.5 mg/L,3.9 mg/L,,
"CO/N=C(\C(=O)N[C@@H]1C(=O)N2C(C(=O)O)=C(CSc3nc(=O)c(O)nn3C)CS[C@H]12)c1csc(N)n1 [OU-640, ceftriaxone]",0.97 mg/L,15.6 mg/L,0.06 mg/L,3.9 mg/L,
"Cc1cc(O)c(C(=O)N[C@@H](C(=O)N[C@@H]2C(=O)N3C(C(=O)O)=C(CSc4nnnn4C)CS[C@H]23)c2ccc(O)cc2)cn1 [OU-031452, cefpiramide]",> 1000 mg/L,> 1000 mg/L,250 mg/L,> 1000 mg/L,
